Reference: patent US9416162B2, “Peptides having reduced toxicity that stimulate cholesterol efflux” (The Regents of the University of California, priority 2013, dated 2016)
Non-standard residues stand in square brackets, D forms with d. No end group written: not given here. Cit = NC(=O)NCCC[C@H](N)C(=O)O

Columns and labels:
cynomolgus monkeys = assay: IV infusion toxicity in cynomolgus monkeys (ALT, AST, CPK, bilirubin); type: in vivo, cynomolgus monkey
Description: Male (upper panel) and female lower panel) cynomolgus monkeys were administered ATI-5261 at a fixed dose of 100 mg/kg by IV infusion (60 min) every 96 hours for a total of 4 injections. Blood was collected 24 h post infusion and levels of plasma ALT, AST, creatine kinase (CPK), and total and indirect bilirubin were determined Values are expressed as a fold-increase vs. pre-dose levels.

ABCA1 = target: T1, ABCA1 (Mus musculus, UniProt P41233); assay: ABCA1 protein stabilization, western blot of J774 whole-cell lysates; type: cell-based; conditions: J774 cells after cAMP treatment, continued presence of peptide
T1 construct: treated (18 h) with a cAMP analog to induce ABCA1 protein expression; endogenous in cells; host or cells: J774 macrophages
Description: In some embodiments, the stabilization of ABCA is measured by direct measurement of ABCA (e.g., ABCA protein, or nucleic acid) using a cell based assay. Cell based assays can be performed in any cells in which ABCA is expressed (e.g., J774 macrophages), including cells which have been transfected with ABCA (e.g. HeLa cells). Any cell type can be used. For example, J774 macrophages can be used to assess relative ABCA1 protein levels in the presence and absence of polypeptides of the invention. The cells are first contacted with a compound that will induce ABCA (e.g., cAMP or a cAMP analogue such as, 8-bromo-cAMP) to upregulate ABCA (e.g., ABCA1) expression, then exposed to […] polypeptides of the invention in the absence of the cAMP stimulus to evaluate whether ABCA1 protein was stabilized or degraded. Relative levels of ABCA1 protein can be assessed using any means known in the art including, e.g., immunoblot analysis of cell membranes (Oram et al., J. Biol. Chem., 278:52379-52385 (2003)) or hybridization of nucleic acid probes to ABCA mRNA.
J774 macrophages were used for experiments. Panel A—Cells were labeled (48 h) with 3H cholesterol and treated with (right bars) and without (left bars) a cAMP analog to modulate ABCA1 expression. […]

apoE−/− mice [1] = assay: Macrophage reverse cholesterol transport (RCT) to feces in vivo; set-up: species or system mouse; conditions: male apoE−/− mice, IP lipid-free peptide 10 or 30 mg/kg
Description: J774 macrophage foam-cells (acetylated LDL, 100 μg/ml) labeled with [^3H]cholesterol were injected IP into male, atherosclerotic apoE deficient (apoE^−/−) mice 5 months of age together with vehicle alone (PBS) or with lipid-free CS6253 peptide at doses of 10 or 30 mg/kg. Feces were collected at 24 h for assessment of [^3H]sterol. Values are means±SD, n=5 mice per group.

apoE−/− mice [2] = assay: Atherosclerosis in apoE−/− mice on high-fat western diet, whole aorta Oil-Red O staining; type: in vivo, mouse
Description: Male apoE^−/− mice at 8 weeks of age were fed a high-fat western diet for 14 weeks. Mice were subsequently randomized to either a control group to receive IP injection of vehicle alone or lipid-free peptide (30 mg/kg) at 48 hour intervals for 6 weeks. […] The extent of whole aorta covered with fatty lesions is shown, determined by Oil-Red O staining. Values are means±SD, n=10 mice per group.
CS6253, another synthesis batch of T5237-4, was administered IP at 10 mg/kg for 10 weeks showing again reduction of substantial atherosclerosis in apoE^−/− mice (FIG. 36). Male apoE^−/− mice at 8 weeks of age were fed a high-fat western diet for 14 weeks. Mice were subsequently randomized to either a control group to receive IP injection of vehicle alone or lipid-free CS6253 (10 mg/kg) at 48 hour intervals for 10 weeks while the mice remained on high-fat western diet. The extent of whole aorta covered with fatty lesions is shown, determined by Oil-Red O staining. Values are means±SD, n=10 mice per group.
CS6253 administered SC also reduce substantial atherosclerosis in apoE KO mice. Male apoE−/− mice at 8 weeks of age were fed a high-fat western diet for 14 weeks (FIG. 37). One group was terminated before treatment start as baseline control. Mice were subsequently randomized to one of 3 arms to receive subcutaneous (SC) injection alternate days for 6 weeks; vehicle alone, CS6253 30 mg/kg or CS6253 60 mg/kg. During the first 4 treatment weeks the mice remained on high-fat western diet while during the last two weeks of treatment they were switched to chow diet. The extent of whole aorta covered with fatty lesions is shown, determined by Oil-Red O staining. Values are means±SD, n=10 mice per group.

T1 sequence (P41233 whole entry): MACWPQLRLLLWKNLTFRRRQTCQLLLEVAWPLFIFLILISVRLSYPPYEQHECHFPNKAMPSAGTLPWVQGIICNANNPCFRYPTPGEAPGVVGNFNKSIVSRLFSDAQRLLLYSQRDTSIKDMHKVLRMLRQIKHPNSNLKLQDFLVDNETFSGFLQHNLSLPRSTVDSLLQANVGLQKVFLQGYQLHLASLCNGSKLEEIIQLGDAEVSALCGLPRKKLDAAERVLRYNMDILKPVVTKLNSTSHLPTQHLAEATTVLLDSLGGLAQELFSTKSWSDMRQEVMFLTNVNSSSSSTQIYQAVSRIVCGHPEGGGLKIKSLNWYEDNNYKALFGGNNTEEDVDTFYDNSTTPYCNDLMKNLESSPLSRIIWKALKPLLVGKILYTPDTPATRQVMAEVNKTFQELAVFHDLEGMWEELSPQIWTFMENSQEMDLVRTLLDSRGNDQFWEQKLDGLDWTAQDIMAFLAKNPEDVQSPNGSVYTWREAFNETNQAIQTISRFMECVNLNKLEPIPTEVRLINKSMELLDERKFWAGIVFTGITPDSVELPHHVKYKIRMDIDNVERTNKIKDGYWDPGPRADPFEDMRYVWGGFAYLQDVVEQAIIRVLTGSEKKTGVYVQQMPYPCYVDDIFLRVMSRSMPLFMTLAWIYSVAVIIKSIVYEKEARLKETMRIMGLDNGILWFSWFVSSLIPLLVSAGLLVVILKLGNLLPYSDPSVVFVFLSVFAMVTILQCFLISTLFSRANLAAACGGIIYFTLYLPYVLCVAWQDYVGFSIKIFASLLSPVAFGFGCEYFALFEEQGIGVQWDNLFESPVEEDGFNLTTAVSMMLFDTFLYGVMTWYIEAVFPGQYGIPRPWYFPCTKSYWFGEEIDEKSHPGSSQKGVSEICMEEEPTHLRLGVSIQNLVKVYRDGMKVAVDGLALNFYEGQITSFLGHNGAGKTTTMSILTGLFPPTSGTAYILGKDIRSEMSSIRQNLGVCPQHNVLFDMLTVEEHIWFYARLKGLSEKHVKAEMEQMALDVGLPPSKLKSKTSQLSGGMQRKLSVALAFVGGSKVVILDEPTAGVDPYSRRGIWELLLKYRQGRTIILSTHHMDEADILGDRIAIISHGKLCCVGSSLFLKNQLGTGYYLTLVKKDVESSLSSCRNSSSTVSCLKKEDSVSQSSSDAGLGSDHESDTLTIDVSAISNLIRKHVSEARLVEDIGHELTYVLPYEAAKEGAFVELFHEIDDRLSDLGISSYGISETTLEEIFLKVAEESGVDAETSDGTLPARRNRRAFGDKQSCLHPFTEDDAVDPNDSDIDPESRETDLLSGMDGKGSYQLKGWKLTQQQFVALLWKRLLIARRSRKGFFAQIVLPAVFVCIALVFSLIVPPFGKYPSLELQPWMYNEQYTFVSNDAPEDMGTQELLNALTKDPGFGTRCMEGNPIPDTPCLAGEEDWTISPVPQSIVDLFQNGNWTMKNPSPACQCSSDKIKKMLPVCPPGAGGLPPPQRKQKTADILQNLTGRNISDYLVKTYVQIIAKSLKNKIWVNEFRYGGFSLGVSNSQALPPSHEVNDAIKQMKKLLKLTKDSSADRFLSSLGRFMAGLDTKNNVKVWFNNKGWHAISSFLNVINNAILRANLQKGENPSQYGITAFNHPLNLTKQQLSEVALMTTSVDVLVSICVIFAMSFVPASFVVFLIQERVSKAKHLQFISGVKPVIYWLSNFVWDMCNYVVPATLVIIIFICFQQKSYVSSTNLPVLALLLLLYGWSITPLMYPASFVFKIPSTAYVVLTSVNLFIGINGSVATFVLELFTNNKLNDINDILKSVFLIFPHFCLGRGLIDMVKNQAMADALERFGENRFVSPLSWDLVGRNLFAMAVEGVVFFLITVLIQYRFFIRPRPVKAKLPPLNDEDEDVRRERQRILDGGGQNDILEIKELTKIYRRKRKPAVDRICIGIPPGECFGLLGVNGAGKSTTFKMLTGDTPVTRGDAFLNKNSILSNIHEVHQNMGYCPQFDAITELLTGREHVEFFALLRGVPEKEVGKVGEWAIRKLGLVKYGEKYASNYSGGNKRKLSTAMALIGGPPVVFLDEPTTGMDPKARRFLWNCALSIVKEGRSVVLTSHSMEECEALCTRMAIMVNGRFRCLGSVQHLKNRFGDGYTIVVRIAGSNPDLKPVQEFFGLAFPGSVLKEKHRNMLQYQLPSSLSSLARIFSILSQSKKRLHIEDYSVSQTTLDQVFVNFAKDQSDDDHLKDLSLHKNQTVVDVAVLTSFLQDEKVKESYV

Substance	cytotoxic response (ALT, AST, CPK, bilirubin) (cynomolgus monkeys; 100 mg/kg IV infusion (60 min) every 96 hours, 4 injections, blood 24 h post infusion)	plasma creatine kinase (CPK), fold-increase vs. pre-dose levels (cynomolgus monkeys; 100 mg/kg IV infusion, after the first infusion, male and female monkeys)	ABCA1 protein levels (stabilization) (ABCA1)	macrophage RCT, [3H]sterol in feces at 24 h (apoE−/− mice [1])	extent of whole aorta covered with fatty lesions (apoE−/− mice [2]; IP 10 mg/kg at 48 hour intervals for 10 weeks)	extent of whole aorta covered with fatty lesions (apoE−/− mice [2]; IP 30 mg/kg at 48 hour intervals for 6 weeks)	extent of whole aorta covered with fatty lesions (apoE−/− mice [2]; SC 30 mg/kg or 60 mg/kg alternate days for 6 weeks)
ATI-5261: HDL mimetic peptide, parent peptide; triglyceride elevating and muscle toxic peptide used as positive control (EVRSKLEEWFAAFREFAEEFLARLKS) [reference compound]	induced a cytotoxic response	marked increase	–	–	–	–	–
EVCitSKLEEWLAALCitELAEELLARLKS (SEQ ID NO:2) (EV[Cit]SKLEEWLAAL[Cit]ELAEELLARLKS) [CS6253, citrulline form of LeuATI-5261, R3,14→Citrulline, 26-mer]	–	–	maintained at high levels	stimulated macrophage RCT	reduced atherosclerosis	reduced atherosclerosis	reduced atherosclerosis
